Experimental data as given in the supplement of paper PMC5412046.
Structures can show the parent of a compound that is named as a salt.

Legend:
[1] = test system: SB.mhdgc-1; assay: viability at highest tested concentration (MAXR) relative to DMSO; higher = less cytotoxic; settings: SB.mhdgc-1 (hereditary c.1380delA CDH1 gastric cancer)
How it was run: (§1)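 The values represent viability normalised to DMSO, expressed at the highest concentration or as trapezoidal area under the curve. Cells were hereditary or sporadic patient-derived gastric cancer cells, 500 in 5 μL medium per 1536 well. They were dosed with 23 nL of compound in DMSO by pintool over 11 threefold dilutions, with each compound's top concentration recorded. CellTiter-Glo was applied 48 h later for 30 min at room temperature before luminescence was read on a ViewLux.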

[2] = test system: SB.msgc-1; assay: as above; settings: SB.msgc-1 (sporadic gastric cancer)
How it was run: as §1

[3] = test system: SB.mhdgc-1; assay: area under the dose-response curve of % viability (trapezoidal, 11 doses) (% viability x log10 concentration); higher = less cytotoxic; settings: SB.mhdgc-1 (hereditary c.1380delA CDH1 gastric cancer)
How it was run: as §1

[4] = test system: SB.msgc-1; assay: as above; settings: SB.msgc-1 (sporadic gastric cancer)
How it was run: as §1

Compound	viability [1] [%]	viability [2] [%]	area under the dose-response curve [3]	area under the dose-response curve [4]
CO[C@H]1C[C@H]2OC[C@@]2(OC(C)=O)[C@H]3[C@H](OC(=O)C4=CC=CC=C4)[C@]5(O)C[C@H](OC(=O)[C@H](O)[C@@H](NC(=O)OC(C)(C)C)C6=CC=CC=C6)/C(=C(/[C@@H](OC)C(=O)[C@]13C)C5(C)C)C [Cabazitaxel] (top concentration 46.0829 µM)	33.5	35.7	204	163
Cc1cc(Nc2nc(N[C@@H](C)c3ccc(F)cc3)c(C#N)cc2F)n[nH]1 [AZ-960] (top concentration 46.0829 µM)	8.67	2.72	491	522
O=C(O)c1cc(/N=N/c2ccc([S+](=O)([O-])Nc3ccccn3)cc2)ccc1O [Sulfasalazine] (top concentration 46.0829 µM)	82.3	105	498	510
Cn1cnc2c1c(=O)[nH]c(=O)n2C [Theobromine] (top concentration 46.0829 µM)	4.3	1.84	531	373
Cc1coc2c1C(=O)C(=O)c1c-2ccc2c(C)cccc12 [Tanshinone I] (top concentration 46.0829 µM)	34.1	115	501	541
Cc1ccc(NC(=O)C2(c3ccc4c(c3)OC(F)(F)O4)CC2)nc1-c1cccc(C(=O)O)c1 [Lumacaftor] (top concentration 46.0829 µM)	37.7	25.3	396	211
COc1ccc(N(C(=O)Oc2c(C)cccc2C)c2ccnc(Nc3ccc(N4CCN(C)CC4)cc3)n2)c(OC)c1 (top concentration 46.0829 µM)	47.4	39.9	350	417
CO[C@@H](C(=O)N1Cc2[nH]nc(NC(=O)c3ccc(N4CCN(C)CC4)cc3)c2C1)c1ccccc1 [Danusertib] (top concentration 46.0829 µM)	23.2	26.3	387	469
NNCCc1ccccc1 [Phenelzine] (top concentration 46.0829 µM)	96.7	86.5	554	558
CC(C)C1CCC(C(=O)N[C@H](Cc2ccccc2)C(=O)O)CC1 (stereo not given in full) [Nateglinide] (top concentration 46.0829 µM)	98.3	91	510	535
c1cc(CN2CCCNCCNCCCNCC2)ccc1CN1CCCNCCNCCCNCC1 [Plerixafor hydrochloride] (top concentration 46.0829 µM)	109	81.5	579	450
C1CCN2C[C@H]3C[C@H](\C=C/4CCCN[C@@H]34)[C@H]2C1 [Aloperine] (top concentration 46.0829 µM)	51.5	81.6	470	485
CN(C)C(=O)C(CCN1CCC(O)(c2ccc(Cl)cc2)CC1)(c1ccccc1)c1ccccc1 [Loperamide hydrochloride] (top concentration 46.0829 µM)	5.88	70.5	450	525
Cc1ccc(C)c(OCCCC(C)(C)C(=O)O)c1 [Gemfibrozil] (top concentration 46.0829 µM)	44.5	3.37	476	252
CC(C)[C@H](CO)Nc1nc(Nc2ccc(C(=O)O)c(Cl)c2)c2ncn(C(C)C)c2n1 [Purvalanol B] (top concentration 46.0829 µM)	41.6	43.8	363	500
CC1=CC/2=C(C=C1C)N(C[C@@H](O)[C@@H](O)[C@@H](O)CO)C/3=N/C(=O)NC(=O)C3=N2 [Riboflavin] (top concentration 46.0829 µM)	121	104	570	525
CC(C)(O)CC(=O)NCCn1ccc2ncnc(Nc3ccc(Oc4cccc(C(F)(F)F)c4)c(Cl)c3)c21 [TAK-285] (top concentration 46.0829 µM)	9.61	22.4	428	298
O=S(=O)([O-])CCS.[Na+] [Mesna] (top concentration 46.0829 µM)	98.3	106	502	420

Compound	viability [1] [%]	viability [2] [%]	area under the dose-response curve [3]	area under the dose-response curve [4]
CC(NCCc1ccc(O)cc1)C(O)c1ccc(O)cc1 (stereo not given) [Ritodrine hydrochloride] (top concentration 46.0829 µM)	97.5	112	570	581
Oc1ccc2ccccc2c1SSc1c(O)ccc2ccccc12 [IPA-3] (top concentration 46.0829 µM)	20.8	76.2	476	536
[O-]C(=O)C/1=N/C(=O)NC(=O)N1 [Oteracil potassium] (top concentration 23.0415 µM)	56.9	80.2	411	458
CNC(=O)c1ccc2cc(C3(O)CCn4cncc43)ccc2c1 (stereo not given) [Orteronel] (top concentration 46.0829 µM)	109	94.9	556	534
N#Cc1cc(NC(=O)Nc2nnc(-c3ccncc3)s2)ccc1-c1cn[nH]c1 (top concentration 46.0829 µM)	94.7	89	554	500
C/C(=N\NC(=S)N1CCC1)c1ccccn1 (top concentration 46.0829 µM)	21.9	26.8	182	270
CN(CC#C)C/C1=C/C2=CC=CC=C2OC3=CC=CC=C13 [Omigapil] (top concentration 46.0829 µM)	78.2	60.7	481	476
COC[C@H]1OC(=O)C2=COC3=C2[C@@]1(C)\C4=C(\[C@@H]5CC[C@H](O)[C@@]5(C)C[C@H]4OC(C)=O)C3=O [17_-hydroxy Wortmannin] (top concentration 46.0829 µM)	35.6	35.4	405	391
C[C@@H]1CC[C@@]2(OC1)O[C@H]3C[C@H]4[C@@H]5C/C=C6/C[C@H](CC[C@]6(C)[C@H]5CC[C@]4(C)[C@H]3[C@@H]2C)O[C@@H]7O[C@H](CO)[C@@H](O[C@@H]8O[C@@H](C)[C@H](O)[C@@H](O)[C@H]8O)[C@H](O)[C@H]7O[C@@H]9O[C@@H](C)[C@H](O)[C@@H](O)[C@H]9O [Dioscin] (top concentration 46.0829 µM)	4.07	3.18	428	438
COc1ccc2cc([C@H](C)C(=O)O)ccc2c1 [Naproxen sodium] (top concentration 46.0829 µM)	107	113	563	587
C[C@]\1(CCS\C(=N1)N)C2=CC(=C(F)C=C2F)C3=CN=CN=C3 (top concentration 46.0829 µM)	33.3	44.7	464	500
O=C(CCCN1CCN(c2ccc(F)cc2)CC1)NC1c2ccccc2CSc2ccccc21 (stereo not given) [Monatepil] (top concentration 46.0829 µM)	68.5	49.1	597	486
CN(Cc1cnc2nc(N)nc(N)c2n1)c1ccc(C(=O)N[C@@H](CCC(=O)O)C(=O)O)cc1 [Methotrexate] (top concentration 46.0829 µM)	61.7	37.8	440	348
O=C1NC(=O)/C(=C/c2ccc3nccc(-c4ccncc4)c3c2)S1 [GSK-615] (top concentration 46.0829 µM)	15.3	44.1	346	409
Oc1ccc2c3c1O[C@H]1c4[nH]c5c(c4C[C@@]4(O)[C@@H](C2)N(CC2CC2)CC[C@]314)C[C@@]1(O)[C@H]2Cc3ccc(O)c4c3[C@@]1(CCN2CC1CC1)[C@H]5O4 [nor-Binaltorphimine] (top concentration 46.0829 µM)	130	118	567	548
Cc1nnc(N[S+](=O)([O-])c2ccc(N)cc2)s1 [Sulfamethizole] (top concentration 46.0829 µM)	38.9	3.84	394	489
CC(C)(OCc1nn(Cc2ccccc2)c2ccccc12)C(=O)O [Bindarit] (top concentration 46.0829 µM)	72.5	23.8	530	310
